Results taken from patent US11464782B2, “Method of treating pain or interstitial cystitis using indole compound” (Japan Tobacco Inc., priority 2018, dated 2022).
Structures can show the parent of a compound that is named as a salt.

Assays:
[1] = system: NGF-induced mechanical hyperalgesia; assay: NGF-induced mechanical hyperalgesia in rats (pressure analgesy-meter, paw withdrawal threshold); assay type: in vivo, rat
Experimental: In order to induce a pain-related behavior (withdrawal behavior), NGF was injected into the plantar area of the left hind paw of rats and the thermal latencies/mechanical thresholds were measured. The effects of Compound A on these withdrawal behaviors were investigated. At 2 days before the injection of NGF, the thermal latencies or mechanical thresholds were measured for acclimation to the experimental environment. On the day before injection of NGF, body weights and values of the thermal latencies or mechanical thresholds were obtained. 50 μL of NGF solution was injected intraplantar to left hind paw of rats. 0.5 μg/site of NGF was selected in the evaluation of thermal stimuli and 1 μg/site was selected in that of mechanical stimuli. A monohydrochloride of Compound A (1, 3, or 10 mg/kg) was administered orally at the same time as the NGF injection. The latencies to thermal stimuli were measured at 3 and 6 hours after injection of NGF solution, and the thresholds to mechanical stimuli were measured at 1, 3 and 6 hours after injection of NGF solution. The evaluation was performed as a blind test of each group. The mechanical threshold was measured using a pressure analgesy-meter. A mechanical stimulus (pressure) increased at a constant rate was added to the hind paw, and the pressure under load until animals withdrew its hind paw or vocalization was recorded as the mechanical threshold (mmHg).

[2] = system: NGF-induced thermal hyperalgesia; assay: NGF-induced thermal hyperalgesia in rats (plantar test, paw withdrawal latency); assay type: in vivo, rat
Experimental: In order to induce a pain-related behavior (withdrawal behavior), NGF was injected into the plantar area of the left hind paw of rats and the thermal latencies/mechanical thresholds were measured. The effects of Compound A on these withdrawal behaviors were investigated. At 2 days before the injection of NGF, the thermal latencies or mechanical thresholds were measured for acclimation to the experimental environment. On the day before injection of NGF, body weights and values of the thermal latencies or mechanical thresholds were obtained. 50 μL of NGF solution was injected intraplantar to left hind paw of rats. 0.5 μg/site of NGF was selected in the evaluation of thermal stimuli and 1 μg/site was selected in that of mechanical stimuli. A monohydrochloride of Compound A (1, 3, or 10 mg/kg) was administered orally at the same time as the NGF injection. The latencies to thermal stimuli were measured at 3 and 6 hours after injection of NGF solution, and the thresholds to mechanical stimuli were measured at 1, 3 and 6 hours after injection of NGF solution. The evaluation was performed as a blind test of each group. The thermal latency was measured using a plantar test apparatus. An infrared heat stimuli was delivered to the plantar area of the hind paw and the time to withdraw the paw from the heat source was recorded automatically as the thermal latency. The measurement was performed 5 times for both hind paws of each animal, the averages of the last 3 values in each hind paw were accounted as the thermal latencies of each animal. The measurement for acclimation was performed only 3 times.

[3] = 1 mg/kg oral, right hind paw (uninjected side), 3 hr
[4] = 1 mg/kg oral, right hind paw (uninjected side), 6 hr
[5] = 1 mg/kg oral, right hind paw (uninjected side), pre
[6] = 3 mg/kg oral, right hind paw (uninjected side), 3 hr
[7] = 3 mg/kg oral, right hind paw (uninjected side), 6 hr
[8] = 3 mg/kg oral, right hind paw (uninjected side), pre
[9] = 10 mg/kg oral, right hind paw (uninjected side), 3 hr
[10] = 10 mg/kg oral, right hind paw (uninjected side), 6 hr
[11] = 10 mg/kg oral, right hind paw (uninjected side), pre

SMILES: C[C@@H](C(=O)N(C)c1ccc2cc(-c3n[nH]c4c3CCC(C)(C)C4)[nH]c2c1)N1CCOCC1 [Compound A•HCl]
- Paw Withdrawal Threshold (mmHg) ([1]; 1 mg/kg oral, left hind paw (injected side, NGF 1 μg/site), 1 hr): 107 ± 17 mmHg
- Paw Withdrawal Threshold (mmHg) ([1]; 1 mg/kg oral, left hind paw (injected side, NGF 1 μg/site), 3 hr): 104 ± 20 mmHg
- Paw Withdrawal Threshold (mmHg) ([1]; 1 mg/kg oral, left hind paw (injected side, NGF 1 μg/site), 6 hr): 90 ± 11 mmHg
- Paw Withdrawal Threshold (mmHg) ([1]; 1 mg/kg oral, left hind paw (injected side, NGF 1 μg/site), Pre): 126 ± 21 mmHg
- Paw Withdrawal Threshold (mmHg) ([1]; 1 mg/kg oral, right hind paw (uninjected side), 1 hr): 134 ± 16 mmHg
- Paw Withdrawal Threshold (mmHg) [1, 3]: 135 ± 21 mmHg
- Paw Withdrawal Threshold (mmHg) [1, 4]: 133 ± 9 mmHg
- Paw Withdrawal Threshold (mmHg) [1, 5]: 132 ± 15 mmHg
- Paw Withdrawal Threshold (mmHg) ([1]; 3 mg/kg oral, left hind paw (injected side, NGF 1 μg/site), 1 hr): 118 ± 17 mmHg
- Paw Withdrawal Threshold (mmHg) ([1]; 3 mg/kg oral, left hind paw (injected side, NGF 1 μg/site), 3 hr): 121 ± 21 mmHg
- Paw Withdrawal Threshold (mmHg) ([1]; 3 mg/kg oral, left hind paw (injected side, NGF 1 μg/site), 6 hr): 106 ± 11 mmHg
- Paw Withdrawal Threshold (mmHg) ([1]; 3 mg/kg oral, left hind paw (injected side, NGF 1 μg/site), Pre): 152 ± 26 mmHg
- Paw Withdrawal Threshold (mmHg) ([1]; 3 mg/kg oral, right hind paw (uninjected side), 1 hr): 133 ± 19 mmHg
- Paw Withdrawal Threshold (mmHg) [1, 6]: 141 ± 10 mmHg
- Paw Withdrawal Threshold (mmHg) [1, 7]: 144 ± 23 mmHg
- Paw Withdrawal Threshold (mmHg) [1, 8]: 148 ± 25 mmHg
- Paw Withdrawal Threshold (mmHg) ([1]; 10 mg/kg oral, left hind paw (injected side, NGF 1 μg/site), 1 hr): 130 ± 20 mmHg
- Paw Withdrawal Threshold (mmHg) ([1]; 10 mg/kg oral, left hind paw (injected side, NGF 1 μg/site), 3 hr): 134 ± 22 mmHg
- Paw Withdrawal Threshold (mmHg) ([1]; 10 mg/kg oral, left hind paw (injected side, NGF 1 μg/site), 6 hr): 130 ± 18 mmHg
- Paw Withdrawal Threshold (mmHg) ([1]; 10 mg/kg oral, left hind paw (injected side, NGF 1 μg/site), Pre): 136 ± 17 mmHg
- Paw Withdrawal Threshold (mmHg) ([1]; 10 mg/kg oral, right hind paw (uninjected side), 1 hr): 144 ± 14 mmHg
- Paw Withdrawal Threshold (mmHg) [1, 9]: 139 ± 17 mmHg
- Paw Withdrawal Threshold (mmHg) [1, 10]: 139 ± 13 mmHg
- Paw Withdrawal Threshold (mmHg) [1, 11]: 139 ± 17 mmHg
- Paw Withdrawal Latency ([2]; 1 mg/kg oral, left hind paw (injected side, NGF 0.5 μg/site), 3 hr): 10.0 ± 2.6 s
- Paw Withdrawal Latency ([2]; 1 mg/kg oral, left hind paw (injected side, NGF 0.5 μg/site), 6 hr): 8.7 ± 2.0 s
- Paw Withdrawal Latency ([2]; 1 mg/kg oral, left hind paw (injected side, NGF 0.5 μg/site), pre): 11.4 ± 1.2 s
- Paw Withdrawal Latency [2, 3]: 10.9 ± 1.4 s
- Paw Withdrawal Latency [2, 4]: 10.8 ± 2.4 s
- Paw Withdrawal Latency [2, 5]: 11.6 ± 1.1 s
- Paw Withdrawal Latency ([2]; 3 mg/kg oral, left hind paw (injected side, NGF 0.5 μg/site), 3 hr): 10.3 ± 1.6 s
- Paw Withdrawal Latency ([2]; 3 mg/kg oral, left hind paw (injected side, NGF 0.5 μg/site), 6 hr): 9.9 ± 1.5 s
- Paw Withdrawal Latency ([2]; 3 mg/kg oral, left hind paw (injected side, NGF 0.5 μg/site), pre): 11.2 ± 1.9 s
- Paw Withdrawal Latency [2, 6]: 12.3 ± 2.2 s
- Paw Withdrawal Latency [2, 7]: 11.9 ± 1.9 s
- Paw Withdrawal Latency [2, 8]: 11.6 ± 1.5 s
- Paw Withdrawal Latency ([2]; 10 mg/kg oral, left hind paw (injected side, NGF 0.5 μg/site), 3 hr): 11.6 ± 2.4 s
- Paw Withdrawal Latency ([2]; 10 mg/kg oral, left hind paw (injected side, NGF 0.5 μg/site), 6 hr): 11.3 ± 1.4 s
- Paw Withdrawal Latency ([2]; 10 mg/kg oral, left hind paw (injected side, NGF 0.5 μg/site), pre): 12.0 ± 1.1 s
- Paw Withdrawal Latency [2, 9]: 11.9 ± 2.7 s
- Paw Withdrawal Latency [2, 10]: 11.5 ± 1.2 s
- Paw Withdrawal Latency [2, 11]: 11.9 ± 1.2 s
